{"source": "PubChem BioAssay AID1963849", "about": "(Molecular Pharmacology Branch, DTP, NCI, 2024)", "system": "299254-011-R-J1-PDC complex spheroid viability", "assay": "Anticancer human tumor 299254-011-R-J1-PDC patient-derived melanoma cell line growth inhibition [POLQ]", "conditions": "for IC50: curve of first compound; for viability, T/C: stronger effect = lower value", "in_short": "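PDC + HUVEC + MSC complex spheroids; POLQ inhibitors ± partner drugs; top conc. at/near clinical Cmax, else 10 microM (SN-38 1 microM), half-log dilutions; 37 degrees C, 5% CO2.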", "key": {"[1]": {"conditions": "second compound 0.0316 µM, first compound 0.0316 µM"}, "[2]": {"conditions": "second compound 0.0316 µM, first compound 0.1 µM"}, "[3]": {"conditions": "second compound 0.1 µM, first compound 0.0316 µM"}, "[4]": {"conditions": "second compound 0.1 µM, first compound 0.1 µM"}, "[5]": {"conditions": "second compound 0.316 µM, first compound 0.0316 µM"}, "[6]": {"conditions": "second compound 0.316 µM, first compound 0.1 µM"}, "[7]": {"conditions": "second compound 1 µM, first compound 0.0316 µM"}, "[8]": {"conditions": "second compound 1 µM, first compound 0.1 µM"}, "[9]": {"conditions": "second compound 3.16 µM, first compound 0.0316 µM"}, "[10]": {"conditions": "second compound 3.16 µM, first compound 0.1 µM"}, "[11]": {"conditions": "second compound 10 µM, first compound 0.0316 µM"}, "[12]": {"conditions": "second compound 10 µM, first compound 0.1 µM"}}}
{"molecule": "COc1ccc([C@@H](O)c2cc(-c3ncnc4cc(N5CCOCC5)ccc34)c(F)cc2Cl)nn1", "note": "+ Cc1cccc(N(C)C(=O)C2C(O)CCN2c2nc(C)cc(C(F)(F)F)c2C#N)c1;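 further: spheroids exposed to drugs for one week before measurement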;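 on viability, T/C: percent viability relative to DMSO vehicle control taken as 100%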", "values": [{"measurement": "IC50", "setting": "second compound 0.0316 µM", "value": "> 10", "unit": "µM"}, {"measurement": "IC50", "setting": "second compound 0.1 µM", "value": "> 10", "unit": "µM"}, {"measurement": "IC50", "setting": "second compound 0.316 µM", "value": 8.36, "unit": "µM"}, {"measurement": "IC50", "setting": "second compound 1 µM", "value": 8.8, "unit": "µM"}, {"measurement": "IC50", "setting": "second compound 3.16 µM", "value": 6.8, "unit": "µM"}, {"measurement": "IC50", "setting": "second compound 10 µM", "value": 5.75, "unit": "µM"}, {"measurement": "viability, T/C", "setting": "[1]", "value": 105, "unit": "%"}, {"measurement": "viability, T/C", "setting": "[2]", "value": 102, "unit": "%"}, {"measurement": "viability, T/C", "setting": "second compound 0.0316 µM, first compound 0.316 µM", "value": 96.7, "unit": "%"}, {"measurement": "viability, T/C", "setting": "second compound 0.0316 µM, first compound 1 µM", "value": 99, "unit": "%"}, {"measurement": "viability, T/C", "setting": "second compound 0.0316 µM, first compound 3.16 µM", "value": 87.9, "unit": "%"}, {"measurement": "viability, T/C", "setting": "second compound 0.0316 µM, first compound 10 µM", "value": 49.6, "unit": "%"}, {"measurement": "viability, T/C", "setting": "[3]", "value": 90.1, "unit": "%"}, {"measurement": "viability, T/C", "setting": "[4]", "value": 89.2, "unit": "%"}, {"measurement": "viability, T/C", "setting": "second compound 0.1 µM, first compound 0.316 µM", "value": 112, "unit": "%"}, {"measurement": "viability, T/C", "setting": "second compound 0.1 µM, first compound 1 µM", "value": 92.5, "unit": "%"}, {"measurement": "viability, T/C", "setting": "second compound 0.1 µM, first compound 3.16 µM", "value": 95.9, "unit": "%"}, {"measurement": "viability, T/C", "setting": "second compound 0.1 µM, first compound 10 µM", "value": 53.4, "unit": "%"}, {"measurement": "viability, T/C", "setting": "[5]", "value": 101, "unit": "%"}, {"measurement": "viability, T/C", "setting": "[6]", "value": 108, "unit": "%"}, {"measurement": "viability, T/C", "setting": "second compound 0.316 µM, first compound 0.316 µM", "value": 97.9, "unit": "%"}, {"measurement": "viability, T/C", "setting": "second compound 0.316 µM, first compound 1 µM", "value": 86.2, "unit": "%"}, {"measurement": "viability, T/C", "setting": "second compound 0.316 µM, first compound 3.16 µM", "value": 82.1, "unit": "%"}, {"measurement": "viability, T/C", "setting": "second compound 0.316 µM, first compound 10 µM", "value": 43.6, "unit": "%"}, {"measurement": "viability, T/C", "setting": "[7]", "value": 108, "unit": "%"}, {"measurement": "viability, T/C", "setting": "[8]", "value": 97.6, "unit": "%"}, {"measurement": "viability, T/C", "setting": "second compound 1 µM, first compound 0.316 µM", "value": 104, "unit": "%"}, {"measurement": "viability, T/C", "setting": "second compound 1 µM, first compound 1 µM", "value": 111, "unit": "%"}, {"measurement": "viability, T/C", "setting": "second compound 1 µM, first compound 3.16 µM", "value": 82.6, "unit": "%"}, {"measurement": "viability, T/C", "setting": "second compound 1 µM, first compound 10 µM", "value": 46, "unit": "%"}, {"measurement": "viability, T/C", "setting": "[9]", "value": 102, "unit": "%"}, {"measurement": "viability, T/C", "setting": "[10]", "value": 102, "unit": "%"}, {"measurement": "viability, T/C", "setting": "second compound 3.16 µM, first compound 0.316 µM", "value": 100, "unit": "%"}, {"measurement": "viability, T/C", "setting": "second compound 3.16 µM, first compound 1 µM", "value": 90.2, "unit": "%"}, {"measurement": "viability, T/C", "setting": "second compound 3.16 µM, first compound 3.16 µM", "value": 77.8, "unit": "%"}, {"measurement": "viability, T/C", "setting": "second compound 3.16 µM, first compound 10 µM", "value": 36.5, "unit": "%"}, {"measurement": "viability, T/C", "setting": "[11]", "value": 94.6, "unit": "%"}, {"measurement": "viability, T/C", "setting": "[12]", "value": 82.8, "unit": "%"}, {"measurement": "viability, T/C", "setting": "second compound 10 µM, first compound 0.316 µM", "value": 109, "unit": "%"}, {"measurement": "viability, T/C", "setting": "second compound 10 µM, first compound 1 µM", "value": 88.5, "unit": "%"}, {"measurement": "viability, T/C", "setting": "second compound 10 µM, first compound 3.16 µM", "value": 66, "unit": "%"}, {"measurement": "viability, T/C", "setting": "second compound 10 µM, first compound 10 µM", "value": 35.3, "unit": "%"}]}
{"molecule": "Cn1ncnc1[C@H]1c2n[nH]c(=O)c3cc(F)cc(c23)N[C@@H]1c1ccc(F)cc1", "note": "+ Cc1cccc(N(C)C(=O)C2C(O)CCN2c2nc(C)cc(C(F)(F)F)c2C#N)c1", "values": [{"measurement": "IC50", "setting": "second compound 0.0316 µM", "value": "> 0.1", "unit": "µM"}, {"measurement": "IC50", "setting": "second compound 0.1 µM", "value": "> 0.1", "unit": "µM"}, {"measurement": "IC50", "setting": "second compound 0.316 µM", "value": "> 0.1", "unit": "µM"}, {"measurement": "IC50", "setting": "second compound 1 µM", "value": "> 0.1", "unit": "µM"}, {"measurement": "IC50", "setting": "second compound 3.16 µM", "value": "> 0.1", "unit": "µM"}, {"measurement": "IC50", "setting": "second compound 10 µM", "value": "> 0.1", "unit": "µM"}, {"measurement": "viability, T/C", "setting": "second compound 0.0316 µM, first compound 0.000316 µM", "value": 102, "unit": "%"}, {"measurement": "viability, T/C", "setting": "second compound 0.0316 µM, first compound 0.001 µM", "value": 91.6, "unit": "%"}, {"measurement": "viability, T/C", "setting": "second compound 0.0316 µM, first compound 0.00316 µM", "value": 95.9, "unit": "%"}, {"measurement": "viability, T/C", "setting": "second compound 0.0316 µM, first compound 0.01 µM", "value": 110, "unit": "%"}, {"measurement": "viability, T/C", "setting": "[1]", "value": 112, "unit": "%"}, {"measurement": "viability, T/C", "setting": "[2]", "value": 113, "unit": "%"}, {"measurement": "viability, T/C", "setting": "second compound 0.1 µM, first compound 0.000316 µM", "value": 119, "unit": "%"}, {"measurement": "viability, T/C", "setting": "second compound 0.1 µM, first compound 0.001 µM", "value": 108, "unit": "%"}, {"measurement": "viability, T/C", "setting": "second compound 0.1 µM, first compound 0.00316 µM", "value": 117, "unit": "%"}, {"measurement": "viability, T/C", "setting": "second compound 0.1 µM, first compound 0.01 µM", "value": 106, "unit": "%"}, {"measurement": "viability, T/C", "setting": "[3]", "value": 114, "unit": "%"}, {"measurement": "viability, T/C", "setting": "[4]", "value": 119, "unit": "%"}, {"measurement": "viability, T/C", "setting": "second compound 0.316 µM, first compound 0.000316 µM", "value": 108, "unit": "%"}, {"measurement": "viability, T/C", "setting": "second compound 0.316 µM, first compound 0.001 µM", "value": 96.4, "unit": "%"}, {"measurement": "viability, T/C", "setting": "second compound 0.316 µM, first compound 0.00316 µM", "value": 102, "unit": "%"}, {"measurement": "viability, T/C", "setting": "second compound 0.316 µM, first compound 0.01 µM", "value": 114, "unit": "%"}, {"measurement": "viability, T/C", "setting": "[5]", "value": 106, "unit": "%"}, {"measurement": "viability, T/C", "setting": "[6]", "value": 102, "unit": "%"}, {"measurement": "viability, T/C", "setting": "second compound 1 µM, first compound 0.000316 µM", "value": 111, "unit": "%"}, {"measurement": "viability, T/C", "setting": "second compound 1 µM, first compound 0.001 µM", "value": 116, "unit": "%"}, {"measurement": "viability, T/C", "setting": "second compound 1 µM, first compound 0.00316 µM", "value": 103, "unit": "%"}, {"measurement": "viability, T/C", "setting": "second compound 1 µM, first compound 0.01 µM", "value": 114, "unit": "%"}, {"measurement": "viability, T/C", "setting": "[7]", "value": 102, "unit": "%"}, {"measurement": "viability, T/C", "setting": "[8]", "value": 94.1, "unit": "%"}, {"measurement": "viability, T/C", "setting": "second compound 3.16 µM, first compound 0.000316 µM", "value": 90.1, "unit": "%"}, {"measurement": "viability, T/C", "setting": "second compound 3.16 µM, first compound 0.001 µM", "value": 109, "unit": "%"}, {"measurement": "viability, T/C", "setting": "second compound 3.16 µM, first compound 0.00316 µM", "value": 103, "unit": "%"}, {"measurement": "viability, T/C", "setting": "second compound 3.16 µM, first compound 0.01 µM", "value": 111, "unit": "%"}, {"measurement": "viability, T/C", "setting": "[9]", "value": 122, "unit": "%"}, {"measurement": "viability, T/C", "setting": "[10]", "value": 114, "unit": "%"}, {"measurement": "viability, T/C", "setting": "second compound 10 µM, first compound 0.000316 µM", "value": 93.6, "unit": "%"}, {"measurement": "viability, T/C", "setting": "second compound 10 µM, first compound 0.001 µM", "value": 107, "unit": "%"}, {"measurement": "viability, T/C", "setting": "second compound 10 µM, first compound 0.00316 µM", "value": 113, "unit": "%"}, {"measurement": "viability, T/C", "setting": "second compound 10 µM, first compound 0.01 µM", "value": 94, "unit": "%"}, {"measurement": "viability, T/C", "setting": "[11]", "value": 98, "unit": "%"}, {"measurement": "viability, T/C", "setting": "[12]", "value": 99, "unit": "%"}]}
